{"source": "patent US20210095322A1", "about": "“HIGH-PURITY STEVIOL GLYCOSIDES” (PureCircle USA Inc., priority 2018, published 2021)", "key": {"[1]": {"conditions": "aqueous solution; Ref: Celaya et al (2016); cited from earlier work"}, "[2]": {"assay": "Isosweet determination (2-AFC) vs sucrose in acidified water, sweetness potency", "format": "in vivo, human", "conditions": "pH = 3.2", "experimental": "As an example, Reb AM was evaluated."}, "[3]": {"conditions": "FEMA GRAS publication; cited from earlier work"}, "[4]": {"assay": "Solubility characteristics and solution stability in water", "format": "physicochemical", "experimental": "Solubility characteristics were measured as follows. Prepare the following solutions in water and stir at 700 rpm for each. Add heat if necessary at 2 minutes and 30 seconds of stirring. Using a stopwatch, determine how long it takes all powder to dissolve completely and record the temperature at which it dissolves. The following table summarizes the solubility characteristics of Rebaudiosides D, M, and AM."}}, "note": "Like-named read-outs stand apart in the source and are kept apart here.", "data": [{"compound": "C=C1C[C@@]23CC[C@H]4[C@@](C)(CCC[C@@]4(C)C(=O)O[C@@H]4O[C@H](CO)[C@@H](O)[C@H](O)[C@H]4O)[C@@H]2CC[C@]1(O[C@@H]1O[C@H](CO)[C@@H](O)[C@H](O)[C@H]1O[C@@H]1O[C@H](CO)[C@@H](O)[C@H](O)[C@H]1O)C3", "note": "[Stevioside, stevioside]", "values": [{"measurement": "Solubility", "setting": "[1]", "value": "<0.7", "unit": "%"}]}, {"compound": "C=C1C[C@@]23CC[C@H]4[C@@](C)(CCC[C@@]4(C)C(=O)O[C@@H]4O[C@H](CO)[C@@H](O)[C@H](O)[C@H]4O[C@@H]4O[C@H](CO)[C@@H](O)[C@H](O)[C@H]4O)[C@@H]2CC[C@]1(O[C@@H]1O[C@H](CO)[C@@H](O)[C@H](O[C@@H]2O[C@H](CO)[C@@H](O)[C@H](O)[C@H]2O)[C@H]1O[C@@H]1O[C@H](CO)[C@@H](O)[C@H](O)[C@H]1O)C3", "note": "[Reb D, rebaudioside D]", "values": [{"measurement": "Sweetness Equivalent (ppm) in Water", "setting": "[2]; 2.5% SE", "value": 62, "unit": "ppm"}, {"measurement": "Sweetness Potency in Water", "setting": "[2]; 2.5% SE", "value": 403, "unit": "x sugar equivalent"}, {"measurement": "Sweetness Equivalent (ppm) in Water", "setting": "[2]; 5.0% SE", "value": 212, "unit": "ppm"}, {"measurement": "Sweetness Potency in Water", "setting": "[2]; 5.0% SE", "value": 236, "unit": "x sugar equivalent"}, {"measurement": "Sweetness Equivalent (ppm) in Water", "setting": "[2]; 7.5% SE", "value": 500, "unit": "ppm"}, {"measurement": "Sweetness Potency in Water", "setting": "[2]; 7.5% SE", "value": 150, "unit": "x sugar equivalent"}, {"measurement": "Sweetness Equivalent (ppm) in Water", "setting": "[2]; 10.0% SE", "value": 926, "unit": "ppm"}, {"measurement": "Sweetness Potency in Water", "setting": "[2]; 10.0% SE", "value": 108, "unit": "x sugar equivalent"}, {"measurement": "Sweetness Perception Threshold Concentration", "setting": "[3]", "value": 32.5, "unit": "ppm"}, {"measurement": "Comment on solubility", "setting": "[4]; Test Conc. 0.05%", "value": "Easily Soluble"}, {"measurement": "Dissolution in water (Heated), temperature", "setting": "[4]; Test Conc. 0.05%", "value": "temp: 39 deg. C."}, {"measurement": "Solution after 24 hrs", "setting": "[4]; Test Conc. 0.05%", "value": "Clear"}, {"measurement": "Solution after 48 hrs", "setting": "[4]; Test Conc. 0.05%", "value": "Clear"}, {"measurement": "Comment on solubility", "setting": "[4]; Test Conc. 0.1%", "value": "Easily Soluble"}, {"measurement": "Dissolution in water (Heated), temperature", "setting": "[4]; Test Conc. 0.1%", "value": "temp: 72 deg. C."}, {"measurement": "Solution after 24 hrs", "setting": "[4]; Test Conc. 0.1%", "value": "Clear"}, {"measurement": "Solution after 48 hrs", "setting": "[4]; Test Conc. 0.1%", "value": "Clear"}, {"measurement": "Comment on solubility", "setting": "[4]; Test Conc. 0.3%", "value": "Requires"}, {"measurement": "Dissolution in water (Heated), temperature", "setting": "[4]; Test Conc. 0.3%", "value": 78.5, "unit": "deg. C."}, {"measurement": "Solubility", "setting": "[4]; summary of solution stability in water", "value": 0.1, "unit": "%"}]}, {"compound": "C=C1C[C@@]23CC[C@H]4[C@@](C)(CCC[C@@]4(C)C(=O)O[C@@H]4O[C@H](CO)[C@@H](O)[C@H](O)[C@H]4O)[C@@H]2CC[C@]1(O[C@@H]1O[C@H](CO)[C@@H](O)[C@H](O[C@@H]2O[C@H](CO)[C@@H](O)[C@H](O)[C@H]2O)[C@H]1O[C@@H]1O[C@H](CO)[C@@H](O)[C@H](O)[C@H]1O)C3", "note": "[Reb A, rebaudioside A]", "values": [{"measurement": "Sweetness Equivalent (ppm) in Water", "setting": "[2]; 2.5% SE", "value": 94, "unit": "ppm"}, {"measurement": "Sweetness Potency in Water", "setting": "[2]; 2.5% SE", "value": 266, "unit": "x sugar equivalent"}, {"measurement": "Sweetness Equivalent (ppm) in Water", "setting": "[2]; 5.0% SE", "value": 299, "unit": "ppm"}, {"measurement": "Sweetness Potency in Water", "setting": "[2]; 5.0% SE", "value": 167, "unit": "x sugar equivalent"}, {"measurement": "Solubility", "setting": "[1]", "value": "<0.7", "unit": "%"}, {"measurement": "Sweetness Perception Threshold Concentration", "setting": "[3]", "value": 30, "unit": "ppm"}]}]}
